Activity calls are given as the source filed them. The calls are words filed in the database; no cut-off is given here.
Tests used:
Type in all cases: functional
[1] = Antioxidant activity in methanolic solution at 83 uM at 37 degC
[2] = Antioxidant activity assessed as inhibition of rate of formation of phosphatidylcholine hydroperoxides at 1.9 uM by phosphatidylcholine oxidation assay
[3] = Antioxidant activity assessed as inhibition of rate of formation of phosphatidylcholine hydroperoxides at 2.2 uM by phosphatidylcholine oxidation assay

SMILES	Activity [1]	Activity [2]	Activity [3]
C=C(C)CCC[C@@H](C)CCC[C@@H](C)CCC[C@]1(C)CCc2c(C)c(O)c(C)c(C)c2O1	Active	Active	–
Cc1c(C)c2c(c(C)c1O)CC[C@@](C)(CCC[C@H](C)CCC[C@H](C)CCCC(C)C)O2	Active	–	Active

— ChEMBL document CHEMBL1142553, “A new vitamin E (alpha-tocomonoenol) from eggs of the Pacific salmon Oncorhynchus keta” (J Nat Prod, 1999)
